{
  "source": "patent US20180354909A1",
  "about": "“SUBSTITUTED BENZIMIDAZOLIUM, PYRIDO-IMIDAZOLIUM, OR PYRAZINO-IMIDAZOLIUM COMPOUNDS AS CHEMOTHERAPEUTICS” (The Board of Regents of the University of Texas System, priority 2015, published 2018)",
  "key": {"[1]": {"experiment": "In vitro plasma half-life", "format": "in vitro ADME", "conditions": "mouse, plasma, murine plasma, read-out: Plasma T1/2 (converted)", "method": "12M11 (2 μM final concentration) was incubated with murine plasma and saline for 0-1440 minutes. Reactions were quenched with 200 μl (1:2) of methanol containing 0.1% formic acid and 200 ng/ml IS (IS final conc.=100 ng/mL). Samples were vortexed for 15 seconds, incubated at RT for 10 minutes and spun for 5 minutes at 13.2K rpm. Supernatant ([…]) was then transferred to an eppendorf tube and spun in a table top, chilled centrifuge for 5 minutes at 13.2K rpm. Supernatant (800 μL) was transferred to an HPLC vial (w/out insert). Analyzed by Qtrap 3200 mass spectrometer. These methods were used data obtained in the FIGS. 22C and 22F."}, "Hepatocyte half-life": {"experiment": "Hepatocyte half-life", "format": "in vitro ADME", "conditions": "hepatocytes; in vitro; read-out: hepatocyte T1/2"}, "[2]": {"experiment": "In vivo plasma PK, 10 mg/kg IP", "parameters": "species or system mice", "conditions": "female, CD-1, mouse", "method": "22E. 21 female CD-1 mice (6 wks) were administered 10 mg/kg L129 IP, 0.2 ml/mouse formulated as 5% DMSO, 10% Cremophor EL, and 85% D5W. Plasma was processed from whole blood by centrifugation of the ACD treated blood for 10′ at 10,000 rpm in a standard centrifuge. Brains were weighed and snap frozen in liquid nitrogen. Brain homogenates were prepared by mincing the brain tissue and homogenizing in a 3-fold volume of PBS (total volume of homogenate in mL=4× weight in g.) 100 microliters plasma or brain homogenate was mixed with 200 microliters of acetonitrile containing formic acid and an internal standard (final concentration of formic acid=0.1%, IS=25 ng/mL). The samples were vortexed 15 sec, incubated at room temp for 10′ and spun 2×13,200 rpm in a standard microcentrifuge. The supernatant was then analyzed by LC/MS/MS. Buffer A: Water+0.1% formic acid; Buffer B: MeOH+0.1% formic acid; flow rate 1.5 ml/min; column Agilent C18 XDB column, 5 micron packing 50×4.6 mm size; 0-1.5 min 3% B, 1.5-2.5 min gradient to 100% B; 2.5-3.5 min 100% B, 3.5-3.6 min gradient to 3% B; 3.6-4.5 min 3% B; IS N-benzylbenzamide (transition 212.1 to 91.1); Compound transition 474.2 to 336.3. These methods were used data obtained in the FIGS. 22B and 22E."}, "[3]": {"test_system": "cancer cell lines (HeLa, DAOY, MCF7, 435 and HCC38 cells)", "experiment": "CellTiter-Glo cell viability in cancer cell lines", "format": "cell-based, human", "conditions": "significant proportion of cell lines tested, excluding DAOY and MEF", "method": "The activity of compound 12M11 was tested against a variety of cancer cell lines (see FIG. 2A), including those are routinely used in the literature such as HeLa, DAOY, MCF7, 435 and HCC38 cells. […] Just as for MEF cells, without wishing to be bound by any theory, it is believed that the resistance of DAOY cells to the OxyPhos inhibitor 12M11 can be attributed to their higher ATP levels per cell (FIG. 13B) combined with lower intrinsic OxyPhos activity as assessed by TMRE staining (FIG. 13C)."}, "[4]": {"test_system": "mitochondrial membrane potential", "experiment": "TMRE mitochondrial membrane potential staining in Mut6 cells", "format": "cell-based, mouse", "conditions": "within 30 min", "method": "TMRE mitochondrial membrane potential assay kit was purchased from Abcam (113852) and the assay was performed according to the manufacturer's protocol. Briefly, cells were pre-incubated with 1 μM 12M11 (10 min or 18 hrs) or 100 nM FCCP (10 min) and incubated for additional 20 min with 200 nM TMRE before pictures were taken."}, "Mut6 [5]": {"test_system": "Mut6", "experiment": "OCR and ECAR measurement (Seahorse) in Mut6", "format": "cell-based, mouse", "method": "(§1) Oxygen consumption rate (OCR) and extracellular acidification rate (ECAR) were measured by Seahorse Bioscience instrument (XF24) with 80-90% confluent cells, according to the manufacturer's protocol. Briefly, cells were equilibrated for 1 hr at 37° C. incubator lacking CO2. Oxygen concentration and pH in media were measured during sequential treatment with 12M11, Oligomycin (1 μM), FCCP (1 μM), and Rotenone (200 nM). A minimum of three wells were utilized per condition to calculate OCR and ECAR."}, "MEF [6]": {"test_system": "MEF", "experiment": "OCR and ECAR measurement (Seahorse) in MEF", "format": "cell-based, mouse", "method": "as §1"}, "Mut6 [7]": {"test_system": "Mut6", "experiment": "Glucose and lactate in culture media of Mut6 cells", "format": "cell-based, mouse", "conditions": "Mut6, 7 hrs incubation", "method": "Mut6 cells were incubated with 12M11 for 7 hrs, and the collected culture media was measured for glucose, lactate, glutamine, and glutamate (Birsoy, et al., 2014; Lunt and Vander Heiden, 2011). […] Oxygen consumption and extracellular acidification using a XF24 Seahorse analyzer was used to measure cellular oxygen consumption rate (OCR) and extracellular acidification rate (ECAR) (FIG. 8)."}, "MEF [8]": {"test_system": "MEF", "experiment": "Change in ATP levels in MEF cells", "format": "cell-based, mouse", "conditions": "2-6 hr", "method": "Mut6 tumor cells or MEFs were plated into 96-well plates. One day later, Oligomyin (2 μM), Rotenone (200 nM), or 12M11 (1 μM) were added into each well and then ATP levels were measured by Cell-Titer Glo (Promega) after 2 hr, 4 hr, or 6 hr incubation. Each data is mean of six replicates with ± standard deviation."}},
  "data": [
    {"smiles": "CCc1n(CC(=O)O[C@@H]2C[C@H](C)CC[C@H]2C(C)C)c2ccccc2[n+]1C.[Cl-]", "note": "[Compound 12M11]", "values": [
      {"measurement": "half-life at 2 μM", "setting": "[1]", "value": 4, "unit": "min"},
      {"measurement": "half-life", "setting": "Hepatocyte half-life", "value": 4.28, "unit": "h"},
      {"measurement": "Cmax", "setting": "[2]", "value": 2.7, "unit": "ng/mL"},
      {"measurement": "EC50", "setting": "[3]", "value": "mid nanomolar to low micromolar range"},
      {"measurement": "oxidative phosphorylation / mitochondrial membrane potential by TMRE staining", "setting": "[4]", "value": "impairs oxidative phosphorylation"},
      {"measurement": "extracellular acidification rate (ECAR)", "setting": "Mut6 [5]", "value": "dramatically increases"},
      {"measurement": "oxygen consumption rate (OCR)", "setting": "Mut6 [5]", "value": "decrease"},
      {"measurement": "extracellular acidification", "setting": "MEF [6]", "value": "do not increase acidification significantly"},
      {"measurement": "oxygen consumption rate (OCR)", "setting": "MEF [6]", "value": "decrease"},
      {"measurement": "lactate secretion", "setting": "Mut6 [7]", "value": "increased"},
      {"measurement": "uptake of glucose", "setting": "Mut6 [7]", "value": "increased"},
      {"measurement": "ATP levels (% change from basal)", "setting": "MEF [8]", "value": "increase"}
    ]}
  ]
}
